Here are results for 13 compounds from paper PMC10720285 (ACS Omega, 2023).

What all share (format): cell-based
For one experiment, the system named is HepG2. Briefly: MTT antiproliferative assay, HepG2. The settings on record: Homo sapiens, HepG2, 72 h, read-out: IC50 values HepG2.
A further experiment deals with MCF7. Briefly: MTT antiproliferative assay, MCF7. The following applies: Homo sapiens, MCF7, 72 h, read-out: IC50 values MCF7.
The next experiment relates to A549. Nature of the experiment: MTT antiproliferative assay, A549. The settings on record: Homo sapiens, A549, 72 h, read-out: IC50 values A549.
The test system of a further experiment is MCF-10A. Nature of the experiment: MTT cytotoxicity assay, noncancerous MCF-10A. The following applies: Homo sapiens, 72 h, read-out: IC50 values MCF-10A.

Turning to `N#CC1=C(N)OC2=C(C(=O)CCC2)C1c1cccs1` (centres unmarked) [Compound 1, 2-Amino-5-oxo-4-(thiophen-2-yl)-5,6,7,8-tetrahydro-4H-chromene-3-carbonitrile], the IC50 in the experiment with HepG2 was found to be 33.9 ± 3.34 µM; with MCF7, 39.8 ± 3.35 µM; in the experiment on A549, 36.3 ± 3.37 µM.

Regarding `CCO/C=N/C1=C(C#N)C(c2cccs2)C2=C(CCCC2=O)O1` (centres unmarked) [Compound 2, Ethyl (E)-N-(3-Cyano-5-oxo-4-(thiophen-2-yl)-5,6,7,8-tetrahydro-4H-chromen-2-yl)formimidate], the IC50 in the experiment with HepG2 came to 27.3 ± 3.87 µM; in the experiment with MCF7, 29.4 ± 2.35 µM; with A549, 29.9 ± 3.05 µM.

As to `N=c1c2c(ncn1N)OC1=C(C(=O)CCC1)C2c1cccs1` (centres unmarked) [Compound 3, 3-Amino-4-imino-5-(thiophen-2-yl)-3,4,5,7,8,9-hexahydro-6H-chromeno[2,3-d]pyrimidin-6-one], the IC50 in the experiment with HepG2 was found to be 2.02 ± 0.15 µM; in the experiment on MCF7 it was 1.61 ± 0.12 µM; in the experiment on MCF-10A, 77.3 ± 3.22 µM; in the experiment on A549 it was 1.87 ± 0.32 µM.

Take `Nc1nc(=O)[nH]c2c1C(c1cccs1)C1=C(CCCC1=O)O2` (centres unmarked) [Compound 4a, 4-Amino-5-(thiophen-2-yl)-5,7,8,9-tetrahydro-2H-chromeno[2,3-d]pyrimidine-2,6(1H)-dione]: the IC50 was 13.7 ± 3.81 µM with HepG2, 14.3 ± 2.05 µM with MCF7, 60.1 ± 2.31 µM with MCF-10A and 14.9 ± 3.12 µM in the experiment with A549.

`Nc1nc(=S)[nH]c2c1C(c1cccs1)C1=C(CCCC1=O)O2` (centres unmarked) [Compound 4b, 4-Amino-5-(thiophen-2-yl)-2-thioxo-1,2,5,7,8,9-hexahydro-6H-chromeno[2,3-d]pyrimidin-6-one]: the IC50 amounted to 17.8 ± 2.04 µM in the experiment with HepG2, 18.8 ± 3.19 µM with MCF7, 58.1 ± 2.34 µM in the experiment on MCF-10A and 17.1 ± 3.17 µM in the experiment with A549.

On to `Nc1c2c(nc(=S)n1-c1ccccc1)OC1=C(C(=O)CCC1)C2c1cccs1` (centres unmarked) [Compound 7, 4-Amino-3-phenyl-5-(thiophen-2-yl)-2-thioxo-2,3,5,7,8,9-hexahydro-6H-chromeno[2,3-d]pyrimidin-6-one], for which the IC50 came to 6.26 ± 0.32 µM in the experiment with HepG2, 5.6 ± 1.12 µM in the experiment on MCF7, 78.5 ± 2.05 µM in the experiment on MCF-10A and 7.28 ± 1.34 µM with A549.

Take `N#CCc1nc(N)c2c(n1)OC1=C(C(=O)CCC1)C2c1cccs1` (centres unmarked) [Compound 11, 2-(4-Amino-6-oxo-5-(thiophen-2-yl)-6,7,8,9-tetrahydro-5H-chromeno[2,3-d]pyrimidin-2-yl)acetonitrile]: the IC50 was found to be 50.5 ± 3.16 µM in the experiment with HepG2, 60.1 ± 3.45 µM with MCF7 and 50.7 ± 3.23 µM with A549.

Regarding `NC(=S)Cc1nc(N)c2c(n1)OC1=C(C(=O)CCC1)C2c1cccs1` (centres unmarked) [Compound 13, 2-(4-Amino-6-oxo-5-(thiophen-2-yl)-6,7,8,9-tetrahydro-5H-chromeno[2,3-d]pyrimidin-2-yl)ethanethioamide], the IC50 in the experiment on HepG2 came out at 19.3 ± 2.07 µM; in the experiment on MCF7, 18.1 ± 2.05 µM; in the experiment with MCF-10A, 51.6 ± 1.98 µM; with A549, 19.2 ± 3.88 µM.

Turning to `CCOC(=O)NC1=C(C#N)C(c2cccs2)C2=C(CCCC2=O)O1` (centres unmarked) [Compound 14, Ethyl (3-Cyano-5-oxo-4-(thiophen-2-yl)-5,6,7,8-tetrahydro-4H-chromen-2-yl)carbamate], the IC50 in the experiment with HepG2 stood at 37.2 ± 1.45 µM; in the experiment with MCF7, 39.3 ± 3.12 µM; in the experiment on A549, 40.4 ± 3.15 µM.

On to `O=C1CCCC2=C1C(c1cccs1)C1=C(NC(=O)N3CCN=C13)O2` (centres unmarked) [Compound 15, 12-(Thiophen-2-yl)-2,6,8,9,10,12-hexahydro-5H-chromeno[3,2-e]imidazo[1,2-c]pyrimidine-5,11(3H)-dione], for which the IC50 is 19.3 ± 2.06 µM with HepG2, 19.3 ± 3.37 µM in the experiment on MCF7, 52.3 ± 2.18 µM with MCF-10A and 19 ± 3.45 µM in the experiment with A549.

As to `CC(=O)N(C(C)=O)C1=C(C#N)C(c2cccs2)C2=C(CCCC2=O)O1` (centres unmarked) [Compound 17, N-Acetyl-N-(3-cyano-5-oxo-4-(thiophen-2-yl)-5,6,7,8-tetrahydro-4H-chromen-2-yl)acetamide], the IC50 in the experiment on HepG2 turned out to be 25.3 ± 1.34 µM; in the experiment with MCF7, 29 ± 2.38 µM; in the experiment with A549, 24.3 ± 3.88 µM.

In the case of `N=c1c2c(nc(-c3ccccc3)n1N)OC1=C(C(=O)CCC1)C2c1cccs1` (centres unmarked) [Compound 19, 3-Amino-4-imino-2-phenyl-5-(thiophen-2-yl)-3,4,5,7,8,9-hexahydro-6H-chromeno[2,3-d]pyrimidin-6-one], the IC50 with HepG2 worked out at 13.3 ± 1.96 µM; with MCF7, 15.2 ± 1.65 µM; with MCF-10A it was 60.5 ± 1.94 µM; with A549, 14.3 ± 1.96 µM.

In the case of `COc1cccc2c1C(=O)c1c(O)c3c(c(O)c1C2=O)C[C@@](O)(C(=O)CO)C[C@@H]3O[C@H]1C[C@H](N)[C@H](O)[C@H](C)O1` [doxorubicin, reference compound], the IC50 in the experiment with HepG2 is 2.71 ± 0.12 µM; with MCF7 it was 1.68 ± 0.11 µM; in the experiment with MCF-10A, 87.3 ± 1.47 µM; with A549, 2.22 ± 0.22 µM.
